Results on 19 molecules are retold here after US10219516B2, “Molecules having pesticidal utility, and intermediates, compositions, and processes, related thereto” (priority 2015, dated 2019).

Where two headings read alike, the source gives them in different places.

Common to all, as to assay type: in vivo
Assay [1] concerns Beet Armyworm (Spodoptera exigua, LAPHEG). The experiment in a line: Bioassay on Beet Armyworm (BAW), 128-well diet tray assay. Summed up: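 Diet tray, 8 wells/compound; 50 μg/cm^2 applied to diet surface (90:10 acetone-water), dried. 1–5 L2 larvae/well; 25° C., 14:10 L:D, 5–7 d. Read-out: % mortality, mean of 8 wells.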
Assay [2] deals with Cabbage Looper (Trichoplusia ni, TRIPNI). The experiment in a line: Bioassay on Cabbage Looper (CL), 128-well diet tray assay. Conditions: Trichoplusia ni. A digest of the protocol: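 Mortality of second instar larvae exposed to diet coated with 50 μg/cm^2 compound (acetone-water 90:10 vehicle, dried); 25° C., 5–7 days.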
Assay [3] relates to Yellow Fever Mosquito (Aedes aegypti, AEDSAE). The experiment in a line: Bioassay on Yellow Fever Mosquito (YFM), 96-well plate larval assay. To be noted: for YFM rating: Yellow Fever Mosquito, 96-well plate larval assay; for YFM (Biological Results, rating): Species YFM (Yellow Fever Mosquito). Summed up: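 Aedes aegypti larvae (about 1 day old) in liver-powder water were added to plates dispensed from DMSO master plates (4000 ppm stock) diluted with 90:10 water/acetone; six replicate plates per master. Lidded plates were held at room temperature for 3 days, then each well was scored for mortality.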

The mark [4] stands for this setting: Beet Armyworm, 128-well diet tray assay, read-out: BAW rating.
Setting [5] is: Cabbage Looper, 128-well diet tray assay, read-out: CL rating.
Setting [6] is: Species BAW (Beet Armyworm), read-out: BAW (Biological Results, rating).
[7] abbreviates: Species CL (Cabbage Looper), read-out: CL (Biological Results, rating).

Consider `C#CCN(C(=O)c1cc(NC(=O)[C@H]2[C@H](c3cc(Cl)cc(Cl)c3)C2(Cl)Cl)ccc1Cl)c1ccc(F)cc1` (relative stereo) [F413, trans-2-Chloro-5-(2,2-dichloro-3-(3,5-dichlorophenyl)cyclopropane-1-carboxamido)-N-(4-fluorophenyl)-N-(prop-2-yn-1-yl)benzamide], for which the pest or weed control at 50 µg/cm2 in assay [1] (setting [4]) and in assay [2] (setting [5]) was 50 to 100% throughout. Also, the YFM rating result in assay [3] is “A (80-100)”.

For `Nc1cc(NC(=O)c2cc(NC(=O)[C@H]3[C@H](c4ccc(F)c(Cl)c4)C3(Cl)Cl)ccc2Cl)c(F)cc1F` [F403, N-(5-Amino-2,4-difluorophenyl)-2-chloro-5-((1R,3R)-2,2-dichloro-3-(3-chloro-4-fluorophenyl)cyclopropane-1-carboxamido)benzamide], the pest or weed control at 50 µg/cm2 in assay [1] (setting [4]) and in assay [2] (setting [5]) was 50 to 100% each time. In assay [3], the YFM rating result is recorded as “A (80-100)”.

As for `O=C(Nc1ccc(F)cc1F)c1cc(NC(=O)[C@H]2[C@H](c3cc(Cl)cc(Cl)c3)C2(Cl)Cl)ccc1F` (relative stereo) [F61, trans-5-(2,2-Dichloro-3-(3,5-dichlorophenyl)cyclopropane-1-carboxamido)-N-(2,4-difluorophenyl)-2-fluorobenzamide], the pest or weed control at 50 µg/cm2 in assay [1] (setting [6]) and in assay [2] (setting [7]) was 50 to 100% in each case. In addition, in assay [3], the “YFM (Biological Results, rating)” value is “B (More than 0-Less than 80)”.

Consider `Cc1cc(N)ccc1NC(=O)c1cc(NC(=O)[C@H]2[C@H](c3ccc(Cl)c(Cl)c3)C2(Cl)Cl)ccc1Cl` (relative stereo) [F574, trans-N-(4-Amino-2-methylphenyl)-2-chloro-5-(2,2-dichloro-3-(3,4-dichlorophenyl)cyclopropane-1-carboxamido)benzamide], for which the pest or weed control at 50 µg/cm2 in assay [1] (setting [4]) and in assay [2] (setting [5]) was 50 to 100% throughout. Also, in assay [3], the YFM rating entry is given as “A (80-100)”.

Turning to `CN(C(=O)c1cc(NC(=O)[C@H]2[C@H](c3cc(Br)cc(Br)c3)C2(Cl)Cl)ccc1Cl)c1ccc(F)cc1` (relative stereo) [F91, trans-2-Chloro-5-(2,2-dichloro-3-(3,5-dibromophenyl)cyclopropane-1-carboxamido)-N-(4-fluorophenyl)-N-methylbenzamide], the pest or weed control at 50 µg/cm2 in assay [1] (setting [6]) and in assay [2] (setting [7]) was 50 to 100% each time. Further, the “YFM (Biological Results, rating)” value in assay [3] is given as “B (More than 0-Less than 80)”.

`COc1nccc(NC(=O)c2cc(NC(=O)[C@H]3[C@H](c4ccc(F)c(Cl)c4)C3(Cl)Cl)ccc2Cl)c1Cl` (relative stereo) [F547, 2-Chloro-N-(3-chloro-2-methoxypyridin-4-yl)-5-(trans-2,2-dichloro-3-(3-chloro-4-fluorophenyl)cyclopropane-1-carboxamido)benzamide]: the pest or weed control at 50 µg/cm2 in assay [1] (setting [4]) and in assay [2] (setting [5]) was 50 to 100% in each case. Further, the YFM rating result in assay [3] is on record as “A (80-100)”.

For `C=Cc1cc([C@H]2[C@H](C(=O)Nc3ccc(Cl)c(C(=O)Nc4ccc(F)cc4F)c3)C2(Cl)Cl)ccc1F` (relative stereo) [F390, 2-Chloro-5-(trans-2,2-dichloro-3-(4-fluoro-3-vinylphenyl)cyclopropane-1-carboxamido)-N-(2,4-difluorophenyl)benzamide], the pest or weed control at 50 µg/cm2 in assay [1] (setting [4]) and in assay [2] (setting [5]) was 50 to 100% each time. Also, in assay [3], the YFM rating result is “A (80-100)”.

Consider `Nc1c(F)cc(NC(=O)c2cc(NC(=O)[C@H]3[C@H](c4cc(Cl)cc(Cl)c4)C3(Cl)Cl)ccc2Cl)cc1F` [F378, N-(4-Amino-3,5-difluorophenyl)-2-chloro-5-((1R,3R)-2,2-dichloro-3-(3,5-dichlorophenyl)cyclopropane-1-carboxamido)benzamide], for which the pest or weed control at 50 µg/cm2 in assay [1] (setting [4]) and in assay [2] (setting [5]) was 50 to 100% throughout. For the same molecule, in assay [3], the YFM rating result is reported as “B (More than 0-Less than 80)”.

Turning to `O=C(Nc1ccc(F)cc1)c1cc(NC(=O)[C@H]2[C@H](c3cc(F)c(Br)c(F)c3)C2(Cl)Cl)ccc1Cl` (relative stereo) [F538, 5-(trans-3-(4-bromo-3,5-difluorophenyl)-2,2-dichlorocyclopropane-1-carboxamido)-2-chloro-N-(4-fluorophenyl)benzamide], the pest or weed control at 50 µg/cm2 in assay [1] (setting [4]) and in assay [2] (setting [5]) was 50 to 100% in each case. Also, in assay [3], the YFM rating result is on record as “A (80-100)”.

With `CN(C(=O)c1cc(NC(=O)[C@H]2[C@H](c3cc(Cl)cc(Cl)c3)C2(Cl)Cl)ccc1F)c1ccc(F)cc1F` (relative stereo) [F63, trans-5-(2,2-Dichloro-3-(3,5-dichlorophenyl)cyclopropane-1-carboxamido)-N-(2,4-difluorophenyl)-2-fluoro-N-methylbenzamide], the pest or weed control at 50 µg/cm2 in assay [1] (setting [6]) and in assay [2] (setting [7]) was 50 to 100% each time. For the same molecule, in assay [3], the “YFM (Biological Results, rating)” value was “A (80-100)”.

For `Nc1cc(NC(=O)c2cc(NC(=O)[C@H]3[C@H](c4ccc(Cl)c(Br)c4)C3(Cl)Cl)ccc2Cl)c(F)cc1F` [F580, N-(5-Amino-2,4-difluorophenyl)-5-((1R,3R)-3-(3-bromo-4-chlorophenyl)-2,2-dichlorocyclopropane-1-carboxamido)-2-chlorobenzamide], the pest or weed control at 50 µg/cm2 in assay [1] (setting [4]) and in assay [2] (setting [5]) was 50 to 100% throughout. The YFM rating result in assay [3] is on record as “A (80-100)”.

Regarding `Cn1ncc2cc(NC(=O)c3cc(NC(=O)[C@H]4[C@H](c5cc(Cl)cc(Cl)c5)C4(Cl)Cl)ccc3Cl)cnc21` (relative stereo) [F476, 2-Chloro-5-(trans)-(2,2-dichloro-3-(3,5-dichlorophenyl)cyclopropane-1-carboxamido)-N-(1-methyl-1H-pyrazolo[3,4-b]pyridin-5-yl)benzamide], the pest or weed control at 50 µg/cm2 in assay [1] (setting [4]) and in assay [2] (setting [5]) was 50 to 100% throughout. In addition, the YFM rating entry in assay [3] is “A (80-100)”.

For `O=C(Nc1ccc(Cl)c(Cl)c1)c1cc(NC(=O)C2C(c3cc(Cl)cc(Cl)c3)C2(Cl)Cl)ccc1Cl` (stereo not drawn) [PF117, 2-Chloro-5-(trans)-2,2-dichloro-3-(3,5-dichlorophenyl)cyclopropane-1-carboxamido)-N-(3,4-dichlorophenyl)benzamide], the pest or weed control at 50 µg/cm2 in assay [1] (setting [4]) and in assay [2] (setting [5]) was 50 to 100% each time. For the same molecule, in assay [3], the YFM rating result is on record as “A (80-100)”.

On to `Nc1c(F)cnc(NC(=O)c2cc(NC(=O)[C@H]3[C@H](c4cc(Cl)c(Cl)c(Cl)c4)C3(Cl)Cl)ccc2Cl)c1F` [F372, N-(4-Amino-3,5-difluoropyridin-2-yl)-2-chloro-5-((1R,3R)-2,2-dichloro-3-(3,4,5-trichlorophenyl)cyclopropane-1-carboxamido)benzamide], for which the pest or weed control at 50 µg/cm2 in assay [1] (setting [6]) and in assay [2] (setting [7]) was 50 to 100% each time. Moreover, the “YFM (Biological Results, rating)” value in assay [3] is “A (80-100)”.

For the molecule `O=C(Nc1ccc(SC(F)(F)F)cc1)c1cc(NC(=O)[C@H]2[C@H](c3cc(Cl)cc(Cl)c3)C2(Cl)Cl)ccc1Cl` (relative stereo) [PF11, trans-2-Chloro-5-(2,2-dichloro-3-(3,5-dichlorophenyl)cyclopropane-1-carboxamido)-N-(4-((trifluoromethyl)thio)phenyl)benzamide], the pest or weed control at 50 µg/cm2 in assay [1] (setting [4]) and in assay [2] (setting [5]) was 50 to 100% each time. Further, the YFM rating result in assay [3] is “B (More than 0-Less than 80)”.

Consider `O=C(Nc1ccc(F)cc1)c1cc(NC(=O)[C@H]2[C@H](c3cc(Cl)cc(Cl)c3)C2(Cl)Cl)cc(Cl)c1Cl` (relative stereo) [F216, trans-2,3-Dichloro-5-(2,2-dichloro-3-(3,5-dichlorophenyl)cyclopropane-1-carboxamido)-N-(4-fluorophenyl)benzamide], for which the pest or weed control at 50 µg/cm2 in assay [1] (setting [6]) and in assay [2] (setting [7]) was 50 to 100% in each case. Besides, in assay [3], the “YFM (Biological Results, rating)” value is “B (More than 0-Less than 80)”.

Turning to `N#Cc1cc(F)ccc1NC(=O)c1cc(NC(=O)[C@H]2[C@H](c3ccc(Cl)c(Br)c3)C2(Cl)Cl)ccc1Cl` (relative stereo) [F332, 5-(trans-3-(3-Bromo-4-chlorophenyl)-2,2-dichlorocyclopropane-1-carboxamido)-2-chloro-N-(2-cyano-4-fluorophenyl)benzamide], the pest or weed control at 50 µg/cm2 in assay [1] (setting [6]) and in assay [2] (setting [7]) was 50 to 100% throughout. In addition, in assay [3], the “YFM (Biological Results, rating)” value is reported as “A (80-100)”.

On to `O=C(Nc1ccnc(Cl)c1)c1cc(NC(=O)[C@H]2[C@H](c3ccc(Cl)c(Cl)c3)C2(Cl)Cl)ccc1Cl` [F369, 2-Chloro-N-(2-chloropyridin-4-yl)-5-((1R,3R)-2,2-dichloro-3-(3,4-dichlorophenyl)cyclopropane-1-carboxamido)benzamide], for which the pest or weed control at 50 µg/cm2 in assay [1] (setting [6]) and in assay [2] (setting [7]) was 50 to 100% in each case. In addition, the “YFM (Biological Results, rating)” value in assay [3] is listed as “A (80-100)”.

As to `CN(C(=O)CC(F)(F)F)c1ccc(NC(=O)c2cc(NC(=O)[C@H]3[C@H](c4cc(Cl)cc(Cl)c4)C3(Cl)Cl)ccc2Cl)cc1` (relative stereo) [PF30, trans-2-Chloro-5-(2,2-dichloro-3-(3,5-dichlorophenyl)cyclopropane-1-carboxamido)-N-(4-(3,3,3-trifluoro-N-methylpropanamido)phenyl)benzamide], the pest or weed control at 50 µg/cm2 in assay [1] (setting [4]) and in assay [2] (setting [5]) was 50 to 100% throughout. For the same molecule, the YFM rating result in assay [3] is reported as “B (More than 0-Less than 80)”.
